Test results as given in US12157730B2, “Heteroaryl derivative, method for producing same, and pharmaceutical composition comprising same as effective component” (VORONOI INC., priority 2019, dated 2024).

biological target: T1, Ba/F3 cell EGFR Exon20 ins NPH (Homo sapiens, UniProt P00533, INS773NPH); test: Ba/F3 cell proliferation suppression, EGFR Exon20 ins NPH; type: cell-based; conditions: GI50 class; Ba/F3 cell line with NPH inserted at Exon20 of EGFR; 72 hours
T1 construct: expressed in transfected cells; host or cells: Ba/F3
Outline: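 After 72 h compound exposure (twelve 3-fold steps, 0.3 nM–50 um final), live cells were measured by CellTiter-Glo luminescence and growth expressed as % of control to derive GI50. Cells were seeded at 3000–5000 per well a day earlier; Ba/F3 medium contained IL-3; three repeats.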

Row | SMILES | Ba/F3 (NPH) Activity
1 | C=CC(=O)Nc1cc(Nc2cc(N3OCC[C@@H]3c3cccc(F)c3)ncn2)c(OC)cc1N1CCC(N(C)C)CC1 [Example 245, N-(2-(4-(dimethylamino)piperidine-1-yl)-5-((6-((R)-3-(3-fluorophenyl)isoxazolidine-2-yl)pyrimidine-4-yl)amino)-4-methoxyphenyl) acrylamide] | A (GI50 < 50 nM)
2 | COc1cc(N2CCC(N3CCN(C4CC4)CC3)CC2)c(NC(=O)/C=C/CN(C)C)cc1Nc1cc(N2OCC[C@@H]2c2cc(F)cc(F)c2)ncn1 [Example 117, N-(2-(4-(4-cyclopropylpiperazine-1-yl)piperidine-1-yl)-5-((6-((R)-3-(3,5-difluorophenyl)isoxazolidine-2-yl)pyrimidine-4-yl)amino)-4-methoxyphenyl)-(E)-4-(dimethylamino) but-2-enamide] | A (GI50 < 50 nM)
3 | C=CC(=O)Nc1cc(Nc2cc(N3OCC[C@@H]3c3ccc(F)cc3)ncn2)c(OC)cc1N(C)CCN(C)C [Example 39, N-(2-((2-(dimethylamino)ethyl)(methyl)amino)-5-((6-((R)-3-(4-fluorophenyl)isoxazolidine-2-yl)pyrimidine-4-yl)amino)-4-methoxyphenyl) acrylamide] | A (GI50 < 50 nM)
4 | C=CC(=O)Nc1cc(Nc2cc(N3OCC[C@@H]3c3cccs3)ncn2)c(OC)cc1N(C)CCN(C)C [compound 928, N-(2-((2-(dimethylamino)ethyl) (methyl)amino)-4-methoxy-5-((6-((R)-3-(thiophene-2-yl)isoxazolidine-2-yl)pyrimidine-4-yl)amino)phenyl)acrylamide] | A (GI50 < 50 nM)
5 | C=CC(=O)Nc1cc(Nc2cc(N3OCC[C@@H]3c3cccc(F)c3F)ncn2)c(OC)cc1N1CCN(C2COC2)CC1 [compound 923, N-(5-((6-((R)-3-(2,3-difluorophenyl)isoxazolidine-2-yl)pyrimidine-4-yl)amino)-4-methoxy-2-(4-(oxetane-3-yl)piperazine-1-yl)phenyl) acrylamide] | A (GI50 < 50 nM)
6 | C=CC(=O)Nc1cc(Nc2cc(N3OCC[C@@H]3c3cccc4ccccc34)ncn2)c(OC)cc1N1CCN(C)CC1 [compound 441, N-(4-methoxy-2-(4-methylpiperazine-1-yl)-5-((6-((R)-3-(naphthalene-1-yl)isoxazolidine-2-yl)pyrimidine-4-yl)amino)phenyl) acrylamide] | B (50 nM ≤ GI50 < 500 nM)
7 | C=CC(=O)Nc1cc(Nc2cc(N3OCC[C@@H]3c3cccc(Cl)c3F)ncn2)c(OC)cc1N1CCN(C)CC1 [compound 789, N-(5-((6-((R)-3-(3-chloro-2-fluorophenyl)isoxazolidine-2-yl)pyrimidine-4-yl)amino)-4-methoxy-2-(4-methylpiperazine-1-yl)phenyl)acrylamide] | A (GI50 < 50 nM)
8 | C=CC(=O)Nc1cc(Nc2cc(N3OCC[C@@H]3c3cc(F)ccc3F)ncn2)c(OC)cc1N1CCN(C2COC2)CC1 [compound 881, N-(5-((6-((R)-3-(2,5-difluorophenyl)isoxazolidine-2-yl)pyrimidine-4-yl)amino)-4-methoxy-2-(4-(oxetane-3-yl)piperazine-1-yl)phenyl) acrylamide] | A (GI50 < 50 nM)
9 | C=CC(=O)Nc1cc(Nc2cc(N3OCC[C@@H]3Cc3ccccc3)ncn2)c(OC)cc1N1CC2CC1CN2C (stereo partly drawn) [compound 969, N-(5-((6-((S)-3-benzylisoxazolidine-2-yl)pyrimidine-4-yl)amino)-4-methoxy-2-(5-methyl-2,5-diazabicyclo[2.2.1]heptane-2-yl)phenyl) acrylamide] | A (GI50 < 50 nM)
10 | C=CC(=O)Nc1cc(Nc2cc(N3OCC[C@@H]3c3cccc(C#N)c3)ncn2)c(OC)cc1N1CC[C@@H](N(C)C)C1 [compound 395, N-(5-((6-((R)-3-(3-cyanophenyl)isoxazolidine-2-yl)pyrimidine-4-yl)amino)-2-((R)-3-(dimethylamino)pyrolidine-1-yl)-4-methoxyphenyl) acrylamide] | B (50 nM ≤ GI50 < 500 nM)
11 | C=CC(=O)Nc1cc(Nc2cc(N3OCC[C@@H]3c3ccc(F)c(Cl)c3F)ncn2)c(OC)cc1N1CCN(C)CC1 [compound 604, N-(5-((6-((R)-3-(3-chloro-2,4-difluorophenyl)isoxazolidine-2-yl)pyrimidine-4-yl)amino)-4-methoxy-2-(4-methylpiperazine-1-yl)phenyl)acrylamide] | A (GI50 < 50 nM)
12 | C=CC(=O)Nc1cc(Nc2cc(N3OCC[C@@H]3c3ccc(Cl)c(Cl)c3)ncn2)c(OC)cc1N1C[C@H]2C[C@@H]1CO2 [compound 671, N-(2-((1R,4R)-2-oxa-5-azabicyclo[2.2.1]heptane-5-yl)-5-((6-((R)-3-(3,4-dichlorophenyl)isoxazolidine-2-yl)pyrimidine-4-yl)amino)-4-methoxyphenyl) acrylamide] | A (GI50 < 50 nM)

Continued, values first:

Row | Ba/F3 (NPH) Activity | SMILES
13 | B (50 nM ≤ GI50 < 500 nM) | C=CC(=O)Nc1cc(Nc2cc(N3OCC[C@@H]3c3ccc(C)nc3)ncn2)c(OC)cc1N1CCC(N2CCN(C(C)=O)CC2)CC1 [Example 232, N-(2-(4-(4-acetylpiperazine-1-yl)piperidine-1-yl)-4-methoxy-5-((6-((R)-3-(6-methylpyridine-3-yl)isoxazolidine-2-yl)pyrimidine-4-yl)amino)phenyl) acrylamide]
14 | B (50 nM ≤ GI50 < 500 nM) | C=CC(=O)Nc1cc(Nc2cc(N3OCC[C@@H]3c3ccc(C)nc3)ncn2)c(OC)cc1N1CCN(CC)CC1 [Example 42, N-(2-(4-ethylpiperazine-1-yl)-4-methoxy-5-((6((R)-3-(6-methylpyridine-3-yl)isoxazolidine-2-yl)pyrimidine-4-yl)amino)phenyl) acrylamide]
15 | A (GI50 < 50 nM) | C=CC(=O)Nc1cc(Nc2cc(N3OCC[C@@H]3c3ccc(F)cc3F)ncn2)c(OC)cc1N1CCC(N2CCOCC2)CC1 [compound 378, N-(5-((6-((R)-3-(2,4-difluorophenyl)isoxazolidine-2-yl)pyrimidine-4-yl)amino)-4-methoxy-2-(4-morpholinopiperidine-1-yl)phenyl)acrylamide]
16 | A (GI50 < 50 nM) | C=CC(=O)Nc1cc(Nc2cc(N3OCC[C@@H]3c3ccc(Cl)cc3)ncn2)c(OC)cc1N1CCC(N2CCN(C)CC2)CC1 [compound 732, N-(5-((6-((R)-3-(4-chlorophenyl)isoxazolidine-2-yl)pyrimidine-4-yl)amino)-4-methoxy-2-(4-(4-methylpiperazine-1-yl)piperidine-1-yl)phenyl) acrylamide]
17 | A (GI50 < 50 nM) | C=CC(=O)Nc1cc(Nc2cc(N3OCC[C@@H]3c3ccc(Cl)cc3F)ncn2)c(OC)cc1N1CCC(N2CCN(C(C)C)CC2)CC1 [compound 408, N-(5-((6-((R)-3-(4-chloro-2-fluorophenyl)isoxazolidine-2-yl)pyrimidine-4-yl)amino)-2-(4-(4-isopropylpiperazine-1-yl)piperidine-1-yl)-4-methoxyphenyl) acrylamide]
